Data reported in patent US6878713B2, “Generation triple-targeting, chiral, broad-spectrum antimicrobial 7-substituted piperidino-quinolone carboxylic acid derivatives, their preparation, compositions and use as medicaments” (Wockhardt Limited, priority 2001, dated 2005).
Values after ≈ are worked out from the molar mass of the structure shown.

Test system: Fluoroquinolone Sensitive Strains
Experiment: In-vitro antimicrobial test (MIC, two-fold serial agar dilution, NCCLS), Table 17
Assay type: cell-based
Conditions: Escherichia coli, ATCC25922, E. coli ATCC 25922
Experimental: The test method was in accordance with the standard NCCLS protocol (Methods for Dilution Antimicrobial Susceptibility Tests for Bacteria that grow Aerobicially, Approved Standards, M7-A5, Fifth Edition, January 2000).
The antibacterial activities (minimum inhibitory concentration: MIC, […]) were determined by using the two-fold serial agar dilution method recommended by NCCLS. The media used for preculture and main culture were Tryptic Soya broth (Difco) and Mueller Hinton medium (Difco), respectively. The Mueller Hinton agar was supplemented with 5% sheep blood for streptococci. Overnight cultures were diluted with buffered saline (pH 7.2) to the final cell density of 5×10^6-10^7 CFU/ml, and each bacterial suspension was applied with a replicator (Denley's multipoint inoculator, UK) onto a series of Mueller-Hinton agar plates containing antibacterial agents at various concentrations. Final inoculum was approximately 10^4 CFU/spot. The plates were incubated for 18 hrs at 37° C. The MIC was defined as the lowest concentration of an antibacterial agent that inhibits the development of visible microbial growth on agar.

Row | MIC | SMILES
1 | 0.4 µg/mL (≈ 0.956 µM) | COc1c(N2CC(C)C(O)C(C)(C)C2)c(F)cc2c(=O)c(C(=O)O)cn(C3CC3)c12 (stereo not drawn) [Compound 147, 1-Cyclopropyl-6-fluoro-1,4-dihydro-8-methoxy-7-(4-hydroxy-3,3,5-trimethyl-1-piperidinyl)-4-oxo-quinoline-3-carboxylic acid]

Same assay, conditions: Staphylococcus aureus, ATCC 25923 / MSSA, MSSA ATCC 25923

Row | MIC | SMILES
2 | < 0.006 µg/mL | COc1c(N2CC(C)C(O)C(C)(C)C2)c(F)cc2c(=O)c(C(=O)O)cn(C3CC3)c12 (stereo not drawn) [Compound 147, 1-Cyclopropyl-6-fluoro-1,4-dihydro-8-methoxy-7-(4-hydroxy-3,3,5-trimethyl-1-piperidinyl)-4-oxo-quinoline-3-carboxylic acid]

Same assay, conditions: Streptococcus pneumoniae, ATCC49619, S. pneumoniae ATCC 49619

Row | MIC | SMILES
3 | 0.1 µg/mL (≈ 0.239 µM) | COc1c(N2CC(C)C(O)C(C)(C)C2)c(F)cc2c(=O)c(C(=O)O)cn(C3CC3)c12 (stereo not drawn) [Compound 147, 1-Cyclopropyl-6-fluoro-1,4-dihydro-8-methoxy-7-(4-hydroxy-3,3,5-trimethyl-1-piperidinyl)-4-oxo-quinoline-3-carboxylic acid]

Test system: not given
Experiment: not given
Conditions: not given

Row | SMILES | melting point
4 | COc1c(N2CCC(NC(=O)OCc3ccccc3)C(C)(C)C2)c(F)cc2c(=O)c(C(=O)O)cn(C3CC3)c12 (racemic) [Compound 32, (±)-1-Cyclopropyl-6-fluoro-1,4-dihydro-8-methoxy-7-(4-benzyloxycarbonylamino-3,3-dimethyl-1-piperidinyl)-4-oxo-quinoline-3-carboxylic acid] | 158 to 160 °C
5 | Cc1c(N2CCC(N)C(C)(C)C2)c(F)cc2c(=O)c(C(=O)O)cn(C3CC3)c12 (racemic) [Compound 101, (±)-1-Cyclopropyl-6-fluoro-1,4-dihydro-8-methyl-7-(4-amino-3,3-dimethyl-1-piperidinyl)-4-oxo-quinoline-3-carboxylic acid] | 198 to 200 °C
6 | Cc1c(N2CCC(N)C(C)(C)C2)c(F)cc2c(=O)c(C(=O)O)cn(C3CC3)c12.Cl (racemic) [Example 97] | 242 to 244 °C
7 | COc1c(N2CC[C@@H](N)[C@H](C)C2)c(F)cc2c(=O)c(C(=O)O)cn(C3CC3)c12 (relative stereo) [Compound 2, trans-1-Cyclopropyl-6-fluoro-1,4-dihydro-8-methoxy-7-(4-amino-3-methyl-1-piperidinyl)-4-oxo-quinoline-3carboxylic acid] | 240 to 242 °C
8 | COc1c(N2CC[C@H](N)[C@H](C)C2)c(F)cc2c(=O)c(C(=O)O)cn(C3CC3)c12 (relative stereo) [Compound 5, cis-1-Cyclopropyl-6-fluoro-1,4-dihydro-8-methoxy-7-(4-amino-3-methyl-1-piperidinyl)-4-oxo-quinoline-3-carboxylic acid] | 246 to 250 °C
9 | Cc1c(N2CC[C@H](N)[C@H](C)C2)c(F)cc2c(=O)c(C(=O)O)cn(C3CC3)c12 (relative stereo) [Compound 99, cis-1-Cyclopropyl-6-fluoro-1,4-dihydro-8-methyl-7-(4-amino-3-methyl-1-piperidinyl)-4-oxo-quinoline-3-carboxylic acid] | 224 to 228 °C
10 | Cc1c(N2CCC(N)C(C)(C)C2)c(F)cc2c(=O)c(C(=O)O)cn(C3CC3)c12 (single isomer, unassigned; (-)) [Compound 109, (−)-1-Cyclopropyl-6-fluoro-1,4-dihydro-8-methyl-7-(4-amino-3,3-dimethyl-1-piperidinyl)-4-oxo-quinoline-3-carboxylic acid] | 195 to 198 °C
11 | CNC1CCN(c2c(F)cc3c(=O)c(C(=O)O)cn(C4CC4)c3c2OC)CC1C (stereo not drawn) [Compound 8, 1-Cyclopropyl-6-fluoro-1,4-dihydro-8-methoxy-7-(4-methylamino-3-methyl-1-piperidinyl)-4-oxo-quinoline-3-carboxylic acid] | 240 °C (dec.)
12 | CCNC1CCN(c2c(F)cc3c(=O)c(C(=O)O)cn(C4CC4)c3c2OC)CC1C (stereo not drawn) [Compound 10, 1-Cyclopropyl-6-fluoro-1,4-dihydro-8-methoxy-7-(4-ethylamino-3-methyl-1-piperidinyl)-4-oxo-quinoline-3-carboxylic acid] | 160 to 162 °C
13 | COc1c(N2CCC(NC3CC3)C(C)C2)c(F)cc2c(=O)c(C(=O)O)cn(C3CC3)c12 (stereo not drawn) [Compound 11, 1-Cyclopropyl-6-fluoro-1,4-dihydro-8-methoxy-7-(4-cyclopropylamino-3-methyl-1-piperidinyl)-4-oxo-quinoline-3-carboxylic acid] | 182 to 184 °C
14 | COc1c(N2CCC(N(C)C)C(C)C2)c(F)cc2c(=O)c(C(=O)O)cn(C3CC3)c12 (stereo not drawn) [Compound 13, 1-Cyclopropyl-6-fluoro-1,4-dihydro-8-methoxy-7-(4-dimethylamino-3-methyl-1-piperidinyl)-4-oxo-quinoline-3-carboxylic acid] | 180 to 182 °C
15 | COc1c(N2CCC(NC(C)=O)C(C)(C)C2)c(F)cc2c(=O)c(C(=O)O)cn(C3CC3)c12 (stereo not drawn) [Compound 29, 1-Cyclopropyl-6-fluoro-1,4-dihydro-8-methoxy-7-(4-acetylamino-3,3-dimethyl-1-piperidinyl)-4-oxo-quinoline-3-carboxylic acid] | 194 to 196 °C
16 | CNC1CCN(c2c(F)cc3c(=O)c(C(=O)O)cn(C4CC4)c3c2OC)CC1(C)C (stereo not drawn) [Compound 35, 1-Cyclopropyl-6-fluoro-1,4-dihydro-8-methoxy-7-(4-methylamino-3,3-dimethyl-1-piperidinyl)-4-oxo-quinoline-3-carboxylic acid] | 246 to 248 °C
17 | CCNC1CCN(c2c(F)cc3c(=O)c(C(=O)O)cn(C4CC4)c3c2OC)CC1(C)C (stereo not drawn) [Compound 36, 1-Cyclopropyl-6-fluoro-1,4-dihydro-8-methoxy-7-(4-ethylamino-3,3-dimethyl-1-piperidinyl)-4-oxo-quinoline-3-carboxylic acid] | 230 to 232 °C
18 | COc1c(N2CCC(NC3CC3)C(C)(C)C2)c(F)cc2c(=O)c(C(=O)O)cn(C3CC3)c12 (stereo not drawn) [Compound 37, 1-Cyclopropyl-6-fluoro-1,4-dihydro-8-methoxy-7-(4-cyclopropylamino-3,3-dimethyl-1-piperidinyl)-4-oxo-quinoline-3-carboxylic acid] | 190 to 192 °C
19 | COc1c(N2CCC(N(C)C)C(C)(C)C2)c(F)cc2c(=O)c(C(=O)O)cn(C3CC3)c12 (stereo not drawn) [Compound 38, 1-Cyclopropyl-6-fluoro-1,4-dihydro-8-methoxy-7-(4-dimethylamino-3,3-dimethyl-1-piperidinyl)-4-oxo-quinoline-3-carboxylic acid] | 210 °C
20 | CCC1(C)CN(c2c(F)cc3c(=O)c(C(=O)O)cn(C4CC4)c3c2OC)CCC1N (stereo not drawn) [Compound 39, 1-Cyclopropyl-6-fluoro-1,4-dihydro-8-methoxy-7-(4-amino-3-ethyl-3-methyl-1-piperidinyl)-4-oxo-quinoline-3-carboxylic acid] | 152 to 154 °C

Now from value to molecule:

Row | melting point | SMILES
21 | 182 to 184 °C | CCC1(C)CN(c2c(F)cc3c(=O)c(C(=O)O)cn(C4CC4)c3c2OC)CCC1NC (stereo not drawn) [Compound 40, 1-Cyclopropyl-6-fluoro-1,4-dihydro-8-methoxy-7-(4-methylamino-3-ethyl-3-methyl-1-piperidinyl)-4-oxo-quinoline-3-carboxylic acid]
22 | 210 to 212 °C | CCC1(C)CN(c2c(F)cc3c(=O)c(C(=O)O)cn(C4CC4)c3c2OC)CCC1NC1CC1 (stereo not drawn) [Compound 41, 1-Cyclopropyl-6-fluoro-1,4-dihydro-8-methoxy-7-(4-cyclopropylamino-3-ethyl-3-methyl-1-piperidinyl)-4-oxo-quinoline-3-carboxylic acid]
23 | 210 to 212 °C | CCC1(C)CN(c2c(F)cc3c(=O)c(C(=O)O)cn(C4CC4)c3c2OC)CCC1N(C)C (stereo not drawn) [Compound 42, 1-Cyclopropyl-6-fluoro-1,4-dihydro-8-methoxy-7-(4-dimethylamino-3-ethyl-3-methyl-1-piperidinyl)-4-oxo-quinoline-3-carboxylic acid]
24 | 178 to 180 °C | COc1c(N2CC(C)C(N)C(C)C2)c(F)cc2c(=O)c(C(=O)O)cn(C3CC3)c12 (stereo not drawn) [Compound 44, 1-Cyclopropyl-6-fluoro-1,4-dihydro-8-methoxy-7-(4-amino-3,5-dimethyl-1-piperidinyl)-4-oxo-quinoline-3-carboxylic acid]
25 | 268 to 272 °C | CNC1C(C)CN(c2c(F)cc3c(=O)c(C(=O)O)cn(C4CC4)c3c2OC)CC1C (stereo not drawn) [Compound 45, 1-Cyclopropyl-6-fluoro-1,4-dihydro-8-methoxy-7-(4-methylamino-3,5-dimethyl-1-piperidinyl)-4-oxo-quinoline-3-carboxylic acid]
26 | 218 to 220 °C | COc1c(N2CC(C)C(N)C(C)(C)C2)c(F)cc2c(=O)c(C(=O)O)cn(C3CC3)c12 (stereo not drawn) [Compound 50, 1-Cyclopropyl-6-fluoro-1,4-dihydro-8-methoxy-7-(4-amino-3,3,5-trimethyl-1-piperidinyl)-4-oxo-quinoline-3-carboxylic acid]
27 | 260 to 262 °C | COc1c(N2CCC(N)C(C)C2)c(F)c(N)c2c(=O)c(C(=O)O)cn(C3CC3)c12 (stereo not drawn) [Compound 53, 5-Amino-1-cyclopropyl-6-fluoro-1,4-dihydro-8-methoxy-7-(4-amino-3-methyl-1-piperidinyl)-4-oxo-quinoline-3-carboxylic acid]
28 | 228 to 230 °C (dec.) | CNC1CCN(c2c(F)c(N)c3c(=O)c(C(=O)O)cn(C4CC4)c3c2OC)CC1C (stereo not drawn) [Compound 60, 5-Amino-1-cyclopropyl-6-fluoro-1,4-dihydro-8-methoxy-7-(4-methylamino-3-methyl-1-piperidinyl)-4-oxo-quinoline-3-carboxylic acid]
29 | 230 to 232 °C | CCNC1CCN(c2c(F)c(N)c3c(=O)c(C(=O)O)cn(C4CC4)c3c2OC)CC1C (stereo not drawn) [Compound 61, 5-Amino-1-cyclopropyl-6-fluoro-1,4-dihydro-8-methoxy-7-(4-ethylamino-3-methyl-1-piperidinyl)-4-oxo-quinoline-3-carboxylic acid]
30 | 218 to 220 °C | COc1c(N2CCC(NC3CC3)C(C)C2)c(F)c(N)c2c(=O)c(C(=O)O)cn(C3CC3)c12 (stereo not drawn) [Compound 62, 5-Amino-1-cyclopropyl-6-fluoro-1,4-dihydro-8-methoxy-7-(4-cyclopropylamino-3-methyl-1-piperidinyl)-4-oxo-quinoline-3-carboxylic acid]
